Starred links: 1 amine or outer side, 2 acyl side, 3 side chain; linkers in the order of their positions; H or OH if unused. Non-standard residues stand in square brackets, D forms with d. Residues, ends and D or L forms follow the SMILES beside them. Ahppa(3S,4S) = O=C(C[C@H](O)[C@H](Cc1ccccc1)N[*:1])[*:2]; dNMeF = CN[C@H](Cc1ccccc1)C(=O)O; NMeQ = CN[C@@H](CCC(N)=O)C(=O)O; Lac = C[C@H](O)C(=O)O
Columns and labels:
Cathepsin E = biological target: T1, Cathepsin E (Homo sapiens, UniProt P14091); assay: Inhibition of human recombinant cathepsin E using Mca-Gly-Lys-Pro-Ile-Leu-Phe-Phe-Arg-Leu-Lys-(Dnp)-D-Arg-NH2 as substrate preincubated for 15 mins followed by substrate addition measured every 5 mins for 120 mins by fluorescence analysis
T1 sequence (P14091 whole entry): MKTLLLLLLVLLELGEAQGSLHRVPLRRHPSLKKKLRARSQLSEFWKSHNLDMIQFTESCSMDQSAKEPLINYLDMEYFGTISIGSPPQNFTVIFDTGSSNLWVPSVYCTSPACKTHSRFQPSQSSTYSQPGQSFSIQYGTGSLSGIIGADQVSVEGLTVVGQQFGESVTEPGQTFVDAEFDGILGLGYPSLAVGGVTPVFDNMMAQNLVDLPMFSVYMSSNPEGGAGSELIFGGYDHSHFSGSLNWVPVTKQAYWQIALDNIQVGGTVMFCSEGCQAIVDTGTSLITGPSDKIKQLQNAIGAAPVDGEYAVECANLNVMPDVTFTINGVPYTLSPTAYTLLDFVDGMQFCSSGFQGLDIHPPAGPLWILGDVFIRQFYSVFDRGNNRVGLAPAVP

Beta-secretase 1 = Beta-secretase 1 (Homo sapiens, UniProt P56817); assay: Inhibition of BACE1 (unknown origin) using peptide substrate by time-course measurement-based fluorescence analysis
Homo sapiens [1] = organism: Homo sapiens; assay: Selectivity ratio of IC50 for BACE1 (unknown origin) to IC50 for human recombinant cathepsin E
Homo sapiens [2] = organism: Homo sapiens; assay: Selectivity ratio of IC50 for human liver cathepsin D to IC50 for human recombinant cathepsin E
Homo sapiens [3] = organism: Homo sapiens; assay: Selectivity ratio of IC50 for BACE1 (unknown origin) to IC50 for human liver cathepsin D
Cathepsin D = Cathepsin D (Homo sapiens, UniProt P07339); assay: Inhibition of human liver cathepsin D using Mca-Gly-Lys-Pro-Ile-Leu-Phe-Phe-Arg-Leu-Lys-(Dnp)-D-Arg-NH2 as substrate preincubated for 15 mins followed by substrate addition measured every 5 mins for 120 mins by fluorescence analysis
Chain of Cathepsin D (P07339 65-162 limits assumed): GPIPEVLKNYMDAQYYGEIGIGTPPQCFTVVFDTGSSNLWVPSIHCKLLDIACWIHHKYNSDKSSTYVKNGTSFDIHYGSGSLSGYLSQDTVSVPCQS
Chain of Cathepsin D (P07339 169-412 limits assumed): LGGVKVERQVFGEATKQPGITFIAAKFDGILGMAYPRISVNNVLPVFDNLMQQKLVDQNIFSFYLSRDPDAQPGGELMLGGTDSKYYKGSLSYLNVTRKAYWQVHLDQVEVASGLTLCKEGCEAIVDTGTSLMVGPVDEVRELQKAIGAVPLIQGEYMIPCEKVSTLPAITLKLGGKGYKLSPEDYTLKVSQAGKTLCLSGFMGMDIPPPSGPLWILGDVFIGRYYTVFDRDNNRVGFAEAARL

Chain of Beta-secretase 1 (P56817 whole entry): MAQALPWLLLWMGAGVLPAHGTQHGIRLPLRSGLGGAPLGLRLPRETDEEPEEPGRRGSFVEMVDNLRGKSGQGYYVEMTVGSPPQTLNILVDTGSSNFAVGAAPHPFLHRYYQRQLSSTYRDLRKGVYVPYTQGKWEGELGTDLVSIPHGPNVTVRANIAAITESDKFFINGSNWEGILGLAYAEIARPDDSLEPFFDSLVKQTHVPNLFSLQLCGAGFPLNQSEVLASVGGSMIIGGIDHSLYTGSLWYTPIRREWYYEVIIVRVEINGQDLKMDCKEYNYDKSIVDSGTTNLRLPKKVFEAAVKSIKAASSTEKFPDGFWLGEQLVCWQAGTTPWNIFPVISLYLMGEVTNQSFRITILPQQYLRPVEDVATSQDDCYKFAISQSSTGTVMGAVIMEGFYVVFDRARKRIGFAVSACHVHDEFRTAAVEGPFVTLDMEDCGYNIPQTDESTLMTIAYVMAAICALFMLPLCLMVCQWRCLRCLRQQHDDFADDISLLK

CC[C@H](C)[C@H](NC(=O)C[C@H](O)[C@H](Cc1ccccc1)NC(=O)[C@H](CCC(N)=O)N(C)C(=O)[C@@H](NC(=O)[C@H](C)O)[C@@H](C)CC)C(=O)NCC(=O)N(C)[C@H](Cc1ccccc1)C(=O)N1CCC[C@H]1C(=O)OC (H-[Lac]I[NMeQ][Ahppa(3S,4S)]IG[dNMeF]P-OMe)
IC50 (Cathepsin E): 0.023 µM | IC50 (Beta-secretase 1): 0.69 µM | Ratio IC50 (Homo sapiens [1]): 30 | Ratio IC50 (Homo sapiens [2]): 2.4 | Ratio IC50 (Homo sapiens [3]): 12 | IC50 (Cathepsin D): 0.057 µM
